Results taken from patent US20230242663A1, “COMBINATION THERAPY COMPRISING ANTI-CD137 ANTIBODIES” (Adagene PTE. LTD., priority 2020, published 2023).

How the values were obtained:
human T lymphocytes = settings: Kim K. et al., Immunology 2002; cited from earlier work
HUT78 human TCL cells [1] = assay: Dose-dependent effects on CD137L protein surface expression (flow cytometry); type: cell-based; settings: for regulation of CD137L protein surface expression, HUT78 Protein: summary Table 3; for CD137L protein surface expression: HUT78 cells, dose range, 24 hours; for regulation of CD137L protein surface expression, HUT78 Protein: key: 'Y' indicates the treatment caused upregulation; 'N' indicates the treatment did not cause upregulation
Method: HUT78 cells, cultured in 6-well plates in RPMI-1640 medium containing 20% fetal bovine serum (FBS), were treated with a dose range of Romidepsin (0-0.1 μM), Bortezomib (0-1.0 μM), Belinostat (0-1.0 μM), Chidamide (0-3.0 μM), or Vincristine (0-0.03 μM) for 24 hours. Cells (1×10^5) were washed twice in Dulbecco's Phosphate Buffered Saline (DPBS), stained with either Phycoerythrin (PE)-conjugated Isotype Control (Biolegend catalog #400112) and anti-human-CD137L (Biolegend catalog #311504) antibodies (1 μL antibody in 100 μL DPBS, FIG. 5A-5E) or PE-Cy7-conjugated Isotype Control (Thermofisher catalog #25-4714-80) and anti-human-CD137L (Thermofisher catalog #25-5906-42) antibodies (1 μL antibody in 100 μL DPBS, FIG. 5F-5H) at 4° C. for 30 minutes, washed twice in DPBS, and resuspended in 100 μL DPBS for flow cytometry analysis.

[2] = tested on: A20 B cell lymphoma cells; type: in vivo, BALB/c mice; settings: ADG106 5 mg/kg twice a week for 4 doses; Bendamustine 12.5 mg/kg once a day for 4 doses; intraperitoneal
Method: BALB/c mice (n=8 per group, female, 6-8 weeks old) were transplanted subcutaneously with 5×10^5 A20 B cell lymphoma cells. After tumors were established (i.e., having reached a volume of 100 mm^3), mice were treated with vehicle, ADG106 (5 mg/kg, twice a week for 4 doses by intraperitoneal injection), Bendamustine (12.5 mg/kg, once a day for 4 doses by intraperitoneal injection), or ADG106 (5 mg/kg, twice a week for 4 doses by intraperitoneal injection) in combination with Bendamustine (12.5 mg/kg, once a day for 4 doses by intraperitoneal injection). Tumor growth was monitored twice weekly and reported as mean tumor volume±SEM over time.

SU-DHL1 human TCL cells = assay: mRNA expression, QuantiGene Plex assay, SU-DHL1; type: cell-based; settings: for regulation of CD137L mRNA expression, SU-DHL1 mRNA: summary Table 3; for regulation of CD137L mRNA expression, SU-DHL1 mRNA: key: 'Y' indicates the treatment caused upregulation; 'N' indicates the treatment did not cause upregulation
Method: (§1) HUT102, HUT78, and SU-DHL1 cells, cultured in 96-well plates, were treated with a dose range of Romidepsin (0-0.1 μM), Bortezomib (0-1.0 μM), Belinostat (0-10.0 μM), or Vincristine (0-0.03 μM) for 24 hours. Cells were lysed with Lysis Buffer and cell lysates were used for the QuantiGene Plex assay (7-gene multiplex (CD80, CD86, CD274, CD137, CD137L, HPRT1, GAPDH))

HUT102 human TCL cells = assay: mRNA expression, QuantiGene Plex assay, HUT102; type: cell-based; settings: for regulation of CD137L mRNA expression, HUT102 mRNA: summary Table 3; for CD137L mRNA expression / CD137 mRNA expression / CD274 mRNA expression: HUT102 cells, dose range, 24 hours; for regulation of CD137L mRNA expression, HUT102 mRNA: key: 'Y' indicates the treatment caused upregulation; 'N' indicates the treatment did not cause upregulation
Method: as §1

HUT78 human TCL cells [3] = assay: mRNA expression, QuantiGene Plex assay, HUT78; type: cell-based; settings: for regulation of CD137L mRNA expression, HUT78 mRNA: summary Table 3; for CD137L mRNA expression: HUT78 cells, dose range, 24 hours; for regulation of CD137L mRNA expression, HUT78 mRNA: key: 'Y' indicates the treatment caused upregulation; 'N' indicates the treatment did not cause upregulation
Method: as §1

purified human T cells = assay: Cell viability of purified human T cells (CellTiter-Glo); type: cell-based; settings: dose range, 24 hours
Method: (§2) T cells were purified from human PBMCs (>95% purity, data not shown), cultured in 96-well plates in RPMI-1640 medium containing 10% fetal bovine serum (FBS), and treated with a dose range of Romidepsin (0-0.1 μM), Bortezomib (0-1.0 μM), or Chidamide (0-3.0 μM) for 24 hours. The CellTiter-Glo assay (Promega) was used to assess cell viability according to the manufacturer's instructions.

HUT78 human TCL cells [4] = assay: Time-dependent effects on CD137L protein surface expression (flow cytometry); type: cell-based; settings: 0.003 μM Romidepsin or 0.01 μM Bortezomib, 2, 6, 16 or 24 hours
Method: HUT78 cells, cultured in 6-well plates in RPMI-1640 medium containing 20% FBS, were treated with 0.003 μM Romidepsin or 0.01 μM Bortezonib for 2, 6, 16, or 24 hours. Cells (1×103) were washed twice in DPBS, stained with PE-conjugated Isotype Control (Biolegend catalog #400112) and anti-human-CD137L (Biolegend catalog #311504) antibodies (1 μL antibody in 100 μL DPBS) at 4° C. for 30 minutes, washed twice in DPBS, and resuspended in 100 μL DPBS for flow cytometry analysis.

HUT78 human TCL cells [5] = assay: Cell viability of HUT78 cells (CellTiter-Glo); type: cell-based; settings: dose range, 24 hours
Method: as §2, with “HUT78 cells,” for “T cells were purified from human PBMCs (>95% purity, data not shown),”, “20%” for “10%”, “were” for “and”

[6] = SU-DHL1 cells, dose range, 24 hours

Molecule	expression of CD137 in human T lymphocytes (human T lymphocytes)	regulation of CD137L protein surface expression, HUT78 Protein (HUT78 human TCL cells [1])	regulation of CD137L mRNA expression, SU-DHL1 mRNA (SU-DHL1 human TCL cells)	CD137L mRNA expression (SU-DHL1 human TCL cells; [6])	CD137L protein surface expression (HUT78 human TCL cells [1])	regulation of CD137L mRNA expression, HUT102 mRNA (HUT102 human TCL cells)	CD137L mRNA expression (HUT102 human TCL cells)	regulation of CD137L mRNA expression, HUT78 mRNA (HUT78 human TCL cells [3])	CD137L mRNA expression (HUT78 human TCL cells [3])	also measured
COc1cccc2c1C(=O)c1c(O)c3c(c(O)c1C2=O)C[C@@](O)(C(=O)CO)C[C@@H]3O[C@H]1C[C@H](N)[C@H](O)[C@H](C)O1 [doxorubicin]	induce expression of CD137	–	–	–	–	–	–	–	–	–
Nc1cc(F)ccc1NC(=O)c1ccc(CNC(=O)/C=C/c2cccnc2)cc1 [Chidamide, chidamide]	–	Y	–	–	–	–	–	–	–	–
Cn1c(CCCC(=O)O)nc2cc(N(CCCl)CCCl)ccc21 [Bendamustine, bendamustine]	–	–	–	–	–	–	–	–	–	tolerability in mice as monotherapies [2]: well tolerated
O=C(/C=C/c1cccc(S(=O)(=O)Nc2ccccc2)c1)NO [Belinostat, belinostat]	–	Y	Y	dose-dependent upregulation	dose-dependent upregulation	Y	dose-dependent upregulation	Y	dose-dependent upregulation	CD137 mRNA expression (SU-DHL1 human TCL cells; [6]): induced; CD137 mRNA expression (HUT102 human TCL cells): induced; CD274 mRNA expression (HUT102 human TCL cells): induced
C/C=C1\NC(=O)[C@H]2CSSCC/C=C/[C@H](CC(=O)N[C@H](C(C)C)C(=O)N2)OC(=O)[C@H](C(C)C)NC1=O [Romidepsin, romidepsin]	–	Y	Y	–	–	Y	–	Y	–	–
bleomycin	induce expression of CD137	–	–	–	–	–	–	–	–	–
CC(C)C[C@H](NC(=O)[C@H](Cc1ccccc1)NC(=O)c1cnccn1)B(O)O [Bortezomib, bortezomib]	–	Y	Y	dose-dependent upregulation	dose-dependent upregulation	Y	dose-dependent upregulation	N	not	viability of purified human T cells (purified human T cells): minimal or no effect; CD274 mRNA expression (HUT102 human TCL cells): induced; CD137L protein surface expression over time (HUT78 human TCL cells [4]): time-dependent upregulation; cell viability of HUT78 human TCL cells (HUT78 human TCL cells [5]): inhibited cell viability
ADG106: anti-CD137 antibody; heavy chain SEQ ID NO: 10, light chain SEQ ID NO: 11; used as mouse IgG1 in Example 10	–	–	–	–	–	–	–	–	–	tolerability in mice as monotherapies [2]: well tolerated
CO[C@@]12[C@H](COC(N)=O)C3=C(C(=O)C(C)=C(N)C3=O)N1C[C@@H]1N[C@@H]12 [Mitomycin, mitomycin]	induce expression of CD137	–	–	–	–	–	–	–	–	–
CC[C@]1(O)C[C@H]2CN(CCc3c([nH]c4ccccc34)[C@@](C(=O)OC)(c3cc4c(cc3OC)N(C=O)[C@H]3[C@@](O)(C(=O)OC)[C@H](OC(C)=O)[C@]5(CC)C=CCN6CC[C@]43[C@@H]65)C2)C1 [Vincristine, vincristine]	–	N	N	not	did not show upregulation	Y	induced upregulation	N	not	CD137 mRNA expression (HUT102 human TCL cells): induced
